Measurements: patent publication US20220062240A1, “METHODS OF TREATING CANCER USING A CLK INHIBITOR” (BioSplice Therapeutics, Inc., priority 2018, published 2022)
Where two headings read alike, the source gives them in different places.

Legend:
CLK2 = molecular target: T1, CLK2 (Homo sapiens, UniProt P49760); test: CLK2 kinase activity assay (Z-lyte, Ser/Thr 6 peptide); assay type: biochemical; conditions: recombinant CLK2 kinase, ATP 60 μM; read-out: EC50
T1 construct: purchased Thermo Fisher (Life Technologies), Z'-LYTE Kinase Assay Kits
T1 sequence (P49760 whole entry): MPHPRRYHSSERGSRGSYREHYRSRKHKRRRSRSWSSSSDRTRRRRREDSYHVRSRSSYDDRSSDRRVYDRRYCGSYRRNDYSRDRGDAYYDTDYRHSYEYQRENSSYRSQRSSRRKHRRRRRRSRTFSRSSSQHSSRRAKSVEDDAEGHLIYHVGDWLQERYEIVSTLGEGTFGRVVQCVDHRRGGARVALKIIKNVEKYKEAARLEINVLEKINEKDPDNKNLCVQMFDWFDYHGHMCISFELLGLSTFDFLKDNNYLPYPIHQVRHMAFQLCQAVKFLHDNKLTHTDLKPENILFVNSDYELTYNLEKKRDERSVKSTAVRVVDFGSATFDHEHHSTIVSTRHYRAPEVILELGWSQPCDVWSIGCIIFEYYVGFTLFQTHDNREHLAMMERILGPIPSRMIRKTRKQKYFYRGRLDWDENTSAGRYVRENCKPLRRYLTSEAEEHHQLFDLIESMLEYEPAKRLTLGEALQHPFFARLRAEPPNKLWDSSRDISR
Protocol: All reactions were performed in duplicate.

[1] = tested on: liver cancer (3 cell lines); test: CellTiter-Glo Viability Assay, liver cancer; assay type: cell-based; conditions: Homo sapiens, inhibition of cancer cell proliferation
CLK3 = CLK3 (Homo sapiens, UniProt P49761); test: CLK3 kinase activity assay (Z-lyte, Ser/Thr 18 peptide)
CLK3, sequence (P49761 whole entry): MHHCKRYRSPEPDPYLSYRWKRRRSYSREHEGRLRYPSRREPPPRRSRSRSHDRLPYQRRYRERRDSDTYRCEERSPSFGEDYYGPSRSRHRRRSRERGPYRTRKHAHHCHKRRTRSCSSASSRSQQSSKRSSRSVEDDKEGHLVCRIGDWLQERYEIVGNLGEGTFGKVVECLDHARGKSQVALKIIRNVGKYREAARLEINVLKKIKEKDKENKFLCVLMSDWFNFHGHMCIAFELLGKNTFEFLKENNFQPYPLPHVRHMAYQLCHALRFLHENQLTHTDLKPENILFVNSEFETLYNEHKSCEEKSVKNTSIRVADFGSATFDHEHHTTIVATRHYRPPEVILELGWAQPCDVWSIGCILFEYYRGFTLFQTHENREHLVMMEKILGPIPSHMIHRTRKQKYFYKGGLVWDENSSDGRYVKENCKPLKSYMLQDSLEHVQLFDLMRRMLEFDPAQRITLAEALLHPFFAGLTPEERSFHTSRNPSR

[2] = tested on: haematopoietic & lymphoid tumors (13 cell lines); test: CellTiter-Glo Viability Assay, haematopoietic & lymphoid tumors; assay type: cell-based; conditions: Homo sapiens, inhibition of cancer cell proliferation
[3] = tested on: lung cancer (4 cell lines); test: CellTiter-Glo Viability Assay, lung cancer; assay type: cell-based; conditions: Homo sapiens, inhibition of cancer cell proliferation
[4] = tested on: pancreatic cancer (8 cell lines); test: CellTiter-Glo Viability Assay, pancreatic cancer; assay type: cell-based; conditions: Homo sapiens, inhibition of cancer cell proliferation
[5] = tested on: prostate cancer (5 cell lines); test: CellTiter-Glo Viability Assay, prostate cancer; assay type: cell-based; conditions: Homo sapiens
MCF7 = test: CellTiter-Glo Viability Assay, breast cancer; assay type: cell-based; conditions: Homo sapiens, 96 h; MCF7, breast cancer, four days; read-out: EC50
CAMA1 = test: CellTiter-Glo Viability Assay, breast cancer; assay type: cell-based; conditions: Homo sapiens, CAMA-1, 96 h; CAMA1, breast cancer, four days; read-out: EC50
MDA-MB-231-Luc = test: CellTiter-Glo Viability Assay, breast cancer; assay type: cell-based; conditions: Homo sapiens, 96 h; MDA-MB-231-Luc, breast cancer, four days; read-out: EC50
HCC1599 = test: CellTiter-Glo Viability Assay, breast cancer; assay type: cell-based; conditions: Homo sapiens, 96 h; HCC1599, breast cancer, four days; read-out: EC50
DU4475 = test: CellTiter-Glo Viability Assay, breast cancer; assay type: cell-based; conditions: Homo sapiens, DU-4475, 96 h; DU4475, breast cancer, four days; read-out: EC50
ZR-75-1 = test: CellTiter-Glo Viability Assay, breast cancer; assay type: cell-based; conditions: Homo sapiens, 96 h; ZR-75-1, breast cancer, four days; read-out: EC50
T47D = test: CellTiter-Glo Viability Assay, breast cancer; assay type: cell-based; conditions: Homo sapiens, 96 h, breast cancer, four days, read-out: EC50
BT-549 = test: CellTiter-Glo Viability Assay, breast cancer; assay type: cell-based; conditions: Homo sapiens, 96 h; BT-549, breast cancer, four days; read-out: EC50
all 50 cell lines = test: CellTiter-Glo Viability Assay, average across all cell lines; assay type: cell-based; conditions: Homo sapiens; across all 50 cell lines; read-out: average EC50 for inhibition of cancer cell proliferation
How it was run: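 Cells were plated at 300-3,000 per well in their own media, then treated with compound in duplicate, with DMSO wells as controls. After four days at 37° C and 5% CO2, CellTiter-Glo was added, and luminescence was read. EC50s were fitted.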

[6] = tested on: ovarian cancer (4 cell lines); test: CellTiter-Glo Viability Assay, ovarian cancer; assay type: cell-based; conditions: Homo sapiens, inhibition of cancer cell proliferation
[7] = tested on: colorectal cancer (6 cell lines); test: CellTiter-Glo Viability Assay, colorectal cancer; assay type: cell-based; conditions: Homo sapiens, inhibition of cancer cell proliferation

O=C(Nc1cncc(-c2ccc3[nH]nc(-c4cc5cnccc5[nH]4)c3c2)c1)C1CCCCC1 [Compound 47]
EC50 (CLK2): 1.3 nM
EC50 ([1]; SNU-398, SNU398 cell line, read-out: Liver cancer, EC50 SNU398): 57 nM
EC50 ([1]; HEPG2 cell line, read-out: Liver cancer, EC50 HEPG2): 371 nM
EC50 ([1]; PLC/PRF/5 cell line, read-out: Liver cancer, EC50 PLC/PRF/5): 1820 nM
EC50 (CLK3): 17.6 nM
EC50 ([2]; DND41, DND-41 cell line, read-out: Haematopoietic & Lymphoid tumors, EC50 (μM) DND-41): 0.129 µM
EC50 ([2]; MV4-11, MV-4-11 cell line, read-out: Haematopoietic & Lymphoid tumors, EC50 (μM) MV-4-11): 0.07 µM
EC50 ([2]; Rec1, REC-1 cell line, read-out: Haematopoietic & Lymphoid tumors, EC50 (μM) REC-1): 0.453 µM
EC50 ([2]; SU-DHL-4, SUDHL4 cell line, read-out: Haematopoietic & Lymphoid tumors, EC50 (μM) SUDHL4): 0.14 µM
EC50 ([2]; HL-60 cell line, read-out: Haematopoietic & Lymphoid tumors, EC50 (μM) HL-60): 0.769 µM
EC50 ([2]; JM1 cell line, read-out: Haematopoietic & Lymphoid tumors, EC50 (μM) JM1): 0.075 µM
EC50 ([2]; JURKAT, Clone E6-1 cell line, read-out: Haematopoietic & Lymphoid tumors, EC50 (μM) JURKAT, Clone E6-1): 0.466 µM
EC50 ([2]; JeKo-1 cell line, read-out: Haematopoietic & Lymphoid tumors, EC50 (μM) JeKo-1): 0.048 µM
EC50 ([2]; KASUMI-1 cell line, read-out: Haematopoietic & Lymphoid tumors, EC50 (μM) KASUMI-1): 0.25 µM
EC50 ([2]; Loucy cell line, read-out: Haematopoietic & Lymphoid tumors, EC50 (μM) Loucy): 0.136 µM
EC50 ([2]; MOLT-4 cell line, read-out: Haematopoietic & Lymphoid tumors, EC50 (μM) MOLT-4): 0.404 µM
EC50 ([2]; TF-1 cell line, read-out: Haematopoietic & Lymphoid tumors, EC50 (μM) TF-1): 0.861 µM
EC50 ([2]; TOLEDO cell line, read-out: Haematopoietic & Lymphoid tumors, EC50 (μM) TOLEDO): 0.077 µM
EC50 ([3]; A-427, A427 cell line, read-out: Lung cancer, EC50 (μM) A427): 0.14 µM
EC50 ([3]; HCC78, HCC-78 cell line, read-out: Lung cancer, EC50 (μM) HCC-78): 0.666 µM
EC50 ([3]; NCI-H460 cell line, read-out: Lung cancer, EC50 (μM) NCI-H460): 2.64 µM
EC50 ([3]; NCI-H522 cell line, read-out: Lung cancer, EC50 (μM) NCI-H522): 0.157 µM
EC50 ([4]; BXPC-3, BxPC3 cell line, read-out: Pancreatic cancer, EC50 BxPC3): 770 nM
EC50 ([4]; CAPAN-1, Capan1 cell line, read-out: Pancreatic cancer, EC50 Capan1): 761 nM
EC50 ([4]; Capan-2, Capan2 cell line, read-out: Pancreatic cancer, EC50 Capan2): 540 nM
EC50 ([4]; MIA PaCa-2 cell line, read-out: Pancreatic cancer, EC50 MIA PaCa-2): 112 nM
EC50 ([4]; PANC 05.04 cell line, read-out: Pancreatic cancer, EC50 PANC 05.04): 791 nM
EC50 ([4]; PANC-1 cell line, read-out: Pancreatic cancer, EC50 PANC-1): 1780 nM
EC50 ([4]; UPAFII cell line, read-out: Pancreatic cancer, EC50 UPAFII): 357 nM
EC50 ([5]; DU-145, read-out: Prostate cancer EC50 Du-145): 459 nM
EC50 ([5]; PC-3, PC3 cell line, inhibition of cancer cell proliferation, read-out: Prostate cancer EC50 PC3): 322 nM
EC50 ([5]; 22Rv1 cell line, inhibition of cancer cell proliferation, read-out: Prostate cancer EC50 22Rv1): 283 nM
EC50 ([5]; LNCap clone FGC cell line, inhibition of cancer cell proliferation, read-out: Prostate cancer EC50 LNCap clone FGC): 965 nM
EC50 ([5]; VCaP (Sigma) cell line, inhibition of cancer cell proliferation, read-out: Prostate cancer EC50 VCaP (Sigma)): 574 nM
EC50 (MCF7): 1960 nM
EC50 (CAMA1): 210 nM
EC50 (MDA-MB-231-Luc): 407 nM
EC50 (HCC1599): 75 nM
EC50 (DU4475): 77 nM
EC50 (ZR-75-1): 358 nM
EC50 (T47D): 468 nM
EC50 (BT-549): 409 nM
EC50 (all 50 cell lines): 516 nM
EC50 ([6]; PA-1, PA1 cell line, read-out: Ovarian cancer, EC50 (μM) PA1): 0.403 µM
EC50 ([6]; TOV112D, TOV-112D cell line, read-out: Ovarian cancer, EC50 (μM) TOV-112D): 0.192 µM
EC50 ([6]; OV-90 cell line, read-out: Ovarian cancer, EC50 (μM) OV-90): 0.567 µM
EC50 ([6]; OVCAR-3 cell line, read-out: Ovarian cancer, EC50 (μM) OVCAR-3): 0.179 µM
EC50 ([7]; HCT-116, HCT116 cell line, read-out: Colorectal cancer, EC50 (μM) HCT116): 0.402 µM
EC50 ([7]; HT-29, HT29 cell line, read-out: Colorectal cancer, EC50 (μM) HT29): 1.43 µM
EC50 ([7]; SW-620, SW620 cell line, read-out: Colorectal cancer, EC50 (μM) SW620): 0.164 µM
EC50 ([7]; DLD-1 cell line, read-out: Colorectal cancer, EC50 (μM) DLD-1): 0.658 µM
EC50 ([7]; SW48 cell line, read-out: Colorectal cancer, EC50 (μM) SW48): 0.164 µM
EC50 ([7]; SW480 cell line, read-out: Colorectal cancer, EC50 (μM) SW480): 0.22 µM
